Data on 35 compounds can be found in US11787802B2, “Dihydrobenzimidazolones for medical treatment” (C4 Therapeutics, Inc., priority 2017, dated 2023).

Structures are written as SMILES. pKd: −log10 of the molar value.

For this assay, the target named is hCereblon(M1-L442)_hDDB1(M1-H1140) (Homo sapiens (Human), UniProt Q96SW2). The assay is described as follows: Fluorescence direct binding protocol (tryptophan fluorescence titration). As to conditions: fluorescence titration at 20° C., excited at 280 nm, recorded at 340 nm; protein 5.0 E−8 M; assay buffer 50 mM Hepes 7.4 200 mM NaCl; read-out: Fluorescence h-Cereblon_DDB1 Mean Kd_EQ. As to the method: Fluorescence Direct Binding Protocol
Sequence of hCereblon(M1-L442)_hDDB1(M1-H1140) (Q96SW2 whole entry): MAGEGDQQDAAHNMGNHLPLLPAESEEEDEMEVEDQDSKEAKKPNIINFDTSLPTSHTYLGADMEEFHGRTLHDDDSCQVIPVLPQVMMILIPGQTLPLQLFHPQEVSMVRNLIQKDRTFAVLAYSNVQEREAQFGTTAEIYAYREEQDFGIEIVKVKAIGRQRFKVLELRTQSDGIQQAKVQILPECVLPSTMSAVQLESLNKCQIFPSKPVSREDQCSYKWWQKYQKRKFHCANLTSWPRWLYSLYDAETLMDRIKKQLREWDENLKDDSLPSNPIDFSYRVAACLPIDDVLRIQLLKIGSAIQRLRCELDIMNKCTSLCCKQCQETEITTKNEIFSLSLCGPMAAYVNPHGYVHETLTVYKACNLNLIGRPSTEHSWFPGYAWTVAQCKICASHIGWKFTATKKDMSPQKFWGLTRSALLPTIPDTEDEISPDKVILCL
Sequence of hCereblon(M1-L442)_hDDB1(M1-H1140) (Q16531 whole entry partner): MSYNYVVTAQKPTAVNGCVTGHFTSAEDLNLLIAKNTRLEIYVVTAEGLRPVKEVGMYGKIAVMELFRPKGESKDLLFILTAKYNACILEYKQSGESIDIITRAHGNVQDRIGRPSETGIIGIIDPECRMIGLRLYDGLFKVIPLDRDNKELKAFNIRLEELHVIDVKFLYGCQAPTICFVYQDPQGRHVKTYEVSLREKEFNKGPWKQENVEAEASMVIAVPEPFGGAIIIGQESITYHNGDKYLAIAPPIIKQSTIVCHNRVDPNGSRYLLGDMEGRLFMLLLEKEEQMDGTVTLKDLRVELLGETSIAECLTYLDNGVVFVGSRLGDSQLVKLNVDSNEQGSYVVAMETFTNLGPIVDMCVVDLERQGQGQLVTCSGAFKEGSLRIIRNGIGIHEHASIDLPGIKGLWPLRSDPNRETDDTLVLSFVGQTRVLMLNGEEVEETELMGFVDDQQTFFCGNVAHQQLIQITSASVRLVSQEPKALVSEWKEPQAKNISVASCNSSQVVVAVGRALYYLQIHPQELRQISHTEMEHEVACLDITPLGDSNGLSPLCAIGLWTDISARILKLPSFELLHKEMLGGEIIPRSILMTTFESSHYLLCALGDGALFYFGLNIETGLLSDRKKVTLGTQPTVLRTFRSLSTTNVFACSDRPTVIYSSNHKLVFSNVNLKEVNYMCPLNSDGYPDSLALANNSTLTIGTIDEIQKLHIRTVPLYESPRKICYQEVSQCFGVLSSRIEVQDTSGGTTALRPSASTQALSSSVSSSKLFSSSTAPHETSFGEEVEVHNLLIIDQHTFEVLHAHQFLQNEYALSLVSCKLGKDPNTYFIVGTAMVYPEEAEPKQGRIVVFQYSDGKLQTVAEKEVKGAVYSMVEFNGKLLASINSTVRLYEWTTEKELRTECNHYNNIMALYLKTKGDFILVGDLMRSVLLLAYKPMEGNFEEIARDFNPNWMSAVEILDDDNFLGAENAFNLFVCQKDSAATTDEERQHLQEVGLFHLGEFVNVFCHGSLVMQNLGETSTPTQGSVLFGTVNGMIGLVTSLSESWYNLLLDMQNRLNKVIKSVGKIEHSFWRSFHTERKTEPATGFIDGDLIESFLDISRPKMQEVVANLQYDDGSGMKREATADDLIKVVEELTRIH
Determination of the affinities of compounds to protein containing one or more tryptophan is measurable by monitoring the fluorescence emission in direct mode. The measurements depending on the protein available amounts are performed either manually in a cuvette on ISS-PC1 photon counting spectrofluorometer or automatically in well plates on a fluorescence plate reader device. Fluorescence titrations are performed at 20° C. in the chosen binding assay buffer by using a defined constant protein concentration against ligand concentration variations. Small aliquots of known ligand concentration solubilized in DMSO were added and the fluorescence, excited at 280 nm, was recorded at 340 nm. The fluorescence intensity was corrected for protein dilution and for the filter effect (Birdsall et al.^69). The corrected fluorescence intensity was plotted against the ligand concentration and fitted using a four-parameter sigmoidal function, from which the equilibrium dissociation constant Kd was computed using the law of mass action assuming a 1:1 protein-ligand complex (Eftink, 1997^70).
Process • 1) Optimization of measurement parameters to minimize protein consumption and to minimize the dilution effect and the DMSO content • 2) Titration measurements of the protein against ligand by at least 12 titration steps to obtain a good s-curve fit • 3) Repeat the same titration measurements with the ligand alone to enable correction • 4) Check the stability of the protein once by titration against DMSO alone • 5) Determination of the molar extinction coefficients of the ligand at 280 and 340 nm with help of an UV-spectrophotometer • 6) Use Excel template for the correction of the measured raw data • 7) Use GraphPad Prism software for the quadratic binding fit and the KD evaluation.
As for `CC(=O)Nc1ccc2c(c1)CCN2Cc1ccc2[nH]c(=O)[nH]c2c1` [Example 150, N-(1-((2-Oxo-2,3-dihydro-1H-benzo[d]imidazol-5-yl)methyl)indolin-5-yl)acetamide], the pKd is 8.52. On to `COC(=O)c1nc2ccccc2n1-c1ccc2[nH]c(=O)[nH]c2c1` [Example 82, Methyl 1-(2-oxo-1,3-dihydrobenzimidazol-5-yl)benzimidazole-2-carboxylate], for which the pKd was 8.52. In the case of `CNC(=O)c1ccc(C(=O)Nc2ccc3[nH]c(=O)[nH]c3c2)cn1` [Example 133, N2-Methyl-N5-(2-oxo-2,3-dihydro-1H-benzo[d]imidazol-5-yl)pyridine-2,5-dicarboxamide], the pKd was 6.92.

As to `O=C(Nc1ccccc1)Nc1ccc2[nH]c(=O)[nH]c2c1` [Example 88, 1-(2-Oxo-2,3-dihydro-1H-benzo[d]imidazol-5-yl)-3-phenylurea], the pKd was 7.77. The same measure for `CN(C)C(=O)c1ccc2c(c1)nc(-c1cc(-c3cncn3C)nc3ccccc13)n2-c1ccc2[nH]c(=O)[nH]c2c1` [Example 18, N,N-Dimethyl-2-(2-(1-methyl-1H-imidazol-5-yl)quinolin-4-yl)-2′-oxo-2′,3′-dihydro-1′H-[1,5′-bibenzo[d]imidazole]-5-carboxamide]: 7.80.

`O=C(NC1CCN(Cc2ccccc2)CC1)c1ccc2[nH]c(=O)[nH]c2c1` [Example 139, N-(1-Benzylpiperidin-4-yl)-2-oxo-2,3-dihydro-1H-benzo[d]imidazole-5-carboxamide]: the pKd is 8.40. Turning to `O=c1[nH]c2ccc(CCCc3ccccc3)nc2[nH]1` [Example 26, 5-(3-Phenyl-propyl)-1,3-dihydro-imidazo[4,5-b]pyridin-2-one], the pKd is 7.39. For `COC(=O)c1ccc2nc(C(C)C)n(-c3ccc4[nH]c(=O)[nH]c4c3)c2c1` [Example 48, Methyl 2-isopropyl-2′-oxo-2′,3′-dihydro-1′H-[1,5′-bibenzo[d]imidazole]-6-carboxylate] the value was 7.96.

Regarding `CNC(=O)c1ccc2c(c1)nc(Cc1ccccc1OC)n2-c1ccc2[nH]c(=O)[nH]c2c1` [Example 45, 2-(2-Methoxybenzyl)-N-methyl-2′-oxo-2′,3′-dihydro-1′H-[1,5′-bibenzo[d]imidazole]-5-carboxamide], the pKd is 7.66. The same measure for `O=c1[nH]c2ccc(-n3c(-c4ccnc5ccccc45)nc4ccccc43)cc2[nH]1` [Example 7, 2-(Quinolin-4-yl)-1′H-[1,5′-bibenzo[d]imidazol]-2′(3′H)-one]: 7.57. The same measure for `O=c1[nH]c2ccc(N3C[C@H]4CC[C@@H](C3)N4)cc2[nH]1` [Example 59, 5-[rac-(1S,5R)-3,8-diazabicyclo[3.2.1]octan-3-yl]-1,3-dihydrobenzimidazol-2-one]: 8.22. As to `O=C(Nc1ccc2[nH]c(=O)[nH]c2c1)c1cccc2c1CCN2` [Example 144, N-(2-Oxo-2,3-dihydro-1H-benzo[d]imidazol-5-yl)indoline-4-carboxamide], the pKd was 7.54. Consider `NS(=O)(=O)c1ccc(CC(=O)Nc2ccc3[nH]c(=O)[nH]c3c2)cc1` [Example 99, N-(2-Oxo-2,3-dihydro-1H-benzo[d]imidazol-5-yl)-2-(4-sulfamoylphenyl)acetamide], for which the pKd is 7.34. The same measure for `Cn1ccc(-c2cccc(NC(=O)c3ccc4[nH]c(=O)[nH]c4c3)c2)n1` [Example 130, N-(3-(1-Methyl-1H-pyrazol-3-yl)phenyl)-2-oxo-2,3-dihydro-1H-benzo[d]imidazole-5-carboxamide]: 6.11; for `CNC(=O)c1ccc2c(c1)nc(-c1cc(-c3cncn3C)nc3ccccc13)n2-c1ccc2[nH]c(=O)[nH]c2c1` [Example 2, N-Methyl-2-(2-(1-methyl-1H-imidazol-5-yl)quinolin-4-yl)-2′-oxo-2′,3′-dihydro-1′H-[1,5′-bibenzo[d]imidazole]-5-carboxamide]: 7.55; for `O=C1c2ccc(Br)cc2CN1c1ccc2[nH]c(=O)[nH]c2c1` [Example 110, 5-(5-Bromo-1-oxo-isoindolin-2-yl)-1,3-dihydrobenzimidazol-2-one]: 7.54.

For the compound `Cc1ccccc1-c1ccccc1C(=O)Nc1ccc2[nH]c(=O)[nH]c2c1` [Example 122, 2′-Methyl-N-(2-oxo-2,3-dihydro-1H-benzo[d]imidazol-5-yl)-[1,1′-biphenyl]-2-carboxamide], the pKd was 6.14. The same measure for `CNC(=O)c1ccc2c(c1)nc(-c1cc(-c3cncn3C)nc3ccccc13)n2-c1ccc2c(c1)n(C)c(=O)n2C` [Example 17, N,1′,3′-Trimethyl-2-(2-(1-methyl-1H-imidazol-5-yl)quinolin-4-yl)-2′-oxo-2′,3′-dihydro-1′H-[1,5′-bibenzo[d]imidazole]-5-carboxamide]: 7.38; for `O=C(Nc1ccc2[nH]c(=O)[nH]c2c1)c1ccccc1Cc1ccccc1` [Example 123, 2-Benzyl-N-(2-oxo-2,3-dihydro-1H-benzo[d]imidazol-5-yl)benzamide]: 7.66. For `O=C(Nc1cccc(F)c1)Nc1ccc2[nH]c(=O)[nH]c2c1` [Example 127, 1-(3-Fluorophenyl)-3-(2-oxo-2,3-dihydro-1H-benzo[d]imidazol-5-yl)urea] the value was 7.59; for `CC(=O)N1CCN(C(=O)c2ccc3[nH]c(=O)[nH]c3c2)CC1` [Example 22, 5-(4-Acetylpiperazine-1-carbonyl)-1H-benzo[d]imidazol-2(3H)-one], 6.99. For `CNC(=O)c1ccc2c(c1)nc(-c1ccnc3ccccc13)n2-c1ccc2[nH]c(=O)[nH]c2c1` [Example 3, N-Methyl-2′-oxo-2-(quinolin-4-yl)-2′,3′-dihydro-1′H-[1,5′-bibenzo[d]imidazole]-5-carboxamide], the pKd is 7.41. With `CNC(=O)c1ccc2c(c1)nc(C1(c3ccccc3)CC1)n2-c1ccc2[nH]c(=O)[nH]c2c1` [Example 114, N-Methyl-2′-oxo-2-(1-phenylcyclopropyl)-2′,3′-dihydro-1′H-[1,5′-bibenzo[d]imidazole]-5-carboxamide], the pKd was 8.10. The same measure for `O=C(Nc1ccc2[nH]c(=O)[nH]c2c1)C1CCc2ccccc21` (centres unmarked) [Example 69, N-(2-Oxo-2,3-dihydro-1H-benzo[d]imidazol-5-yl)-2,3-dihydro-1H-indene-1-carboxamide]: 7.54.

Consider `CNC(=O)c1cccc2c1nc(C(C)C)n2-c1ccc2[nH]c(=O)[nH]c2c1` [Example 60, 2-Isopropyl-N-methyl-2′-oxo-2′,3′-dihydro-1′H-[1,5′-bibenzo[d]imidazole]-4-carboxamide], for which the pKd was 7.33.

With `CC(C)c1nccn1-c1ccc2[nH]c(=O)[nH]c2c1` [Example 32, 5-(2-Isopropyl-1H-imidazol-1-yl)-1,3-dihydro-2H-benzo[d]imidazol-2-one], the pKd was 8.22.

On to `O=C(c1ccc2[nH]c(=O)[nH]c2c1)N1CCc2ccccc21` [Example 24, 5-(Indoline-1-carbonyl)-1H-benzo[d]imidazol-2(3H)-one], for which the pKd was 9.00. The same measure for `O=C(c1cnc2[nH]c(=O)[nH]c2c1)N1CCCc2ccccc21` [Example 95, 6-(1,2,3,4-Tetrahydroquinoline-1-carbonyl)-1,3-dihydro-2H-imidazo[4,5-b]pyridin-2-one]: 7.70.

With `CC(=O)Nc1cccc(C(=O)Nc2ccc3[nH]c(=O)[nH]c3c2)c1` [Example 75, 3-Acetamido-N-(2-oxo-2,3-dihydro-1H-benzo[d]imidazol-5-yl)benzamide], the pKd was 8.15.

`CC(=O)Nc1ccc(C(=O)Nc2ccc3[nH]c(=O)[nH]c3c2)cc1` [Example 74, 4-Acetamido-N-(2-oxo-2,3-dihydro-1H-benzo[d]imidazol-5-yl)benzamide]: the pKd was 8.70. The same measure for `CCOC(=O)c1ccc2c(c1)CN(c1ccc3[nH]c(=O)[nH]c3c1)C2=O` [Example 111, Ethyl 1-oxo-2-(2-oxo-1,3-dihydrobenzimidazol-5-yl)isoindoline-5-carboxylate]: 7.74. For `O=c1[nH]c2ccc(-n3c(CO)nc4ccccc43)cc2[nH]1` [Example 61, 5-[2-(Hydroxymethyl)benzimidazol-1-yl]-1,3-dihydrobenzimidazol-2-one] the value was 7.54. For `CNC(=O)c1ccc2c(c1)nc(-c1cnc[nH]1)n2-c1ccc2[nH]c(=O)[nH]c2c1` [Example 15, 2-(1H-Imidazol-4-yl)-N-methyl-2′-oxo-2′,3′-dihydro-1′H-[1,5′-bibenzo[d]imidazole]-5-carboxamide] the value was 7.31. In the case of `O=C(Nc1ccc2[nH]c(=O)[nH]c2c1)N1CCN(Cc2ccc(Cl)cc2)CC1` [Example 135, 4-(4-Chlorobenzyl)-N-(2-oxo-2,3-dihydro-1H-benzo[d]imidazol-5-yl)piperazine-1-carboxamide], the pKd is 8.15. For `O=c1[nH]c2ccc(OCc3ccccc3)cc2[nH]1` [Example 154, 5-(Benzyloxy)-1,3-dihydro-2H-benzo[d]imidazol-2-one] the value was 7.77.
